Counter-ions that a name gives are not always drawn.

The target of series [1] is T1, recombinant human 5-HT4 receptor (Homo sapiens, UniProt Q13639).
T1 construct: expressed in transfected cells
As to the kind of experiment: Determination of EC50 values for 5-HT4 receptor (CHO cells, pCRE-Luc reporter). The format is cell-based. As to conditions: luciferase reporter, 4 hours incubation, read-out: 5-HT4 receptor agonistic binding in-vitro EC50. The method, then:
A stable CHO cell line expressing recombinant human 5-HT4 receptor and pCRE-Luc reporter system was used for cell-based assay. The assay offers a non-radioactive based approach to determine binding of a compound to GPCRs. In this specific assay, the level of intracellular cyclic AMP, which is modulated by activation, or inhibition of the receptor is measured. The recombinant cells harbor luciferase reporter gene under the control of cAMP response element.
The above cells were grown in 96 well clear bottom white plates in Hams F12 medium containing 10% fetal bovine serum (FBS). Prior to the addition of compounds or standard agonist, cells were serum starved overnight. Increasing concentrations of test compounds were added in OptiMEM medium to the cells. The incubation was continued at 37° C. in CO2 incubator for 4 hours. Medium was removed and cells were washed with phosphate buffered saline. The cells were lysed and luciferase activity was measured in a Luminometer. Luminescence units were plotted against the compound concentrations using Graphpad software. EC50 values of the compounds were defined as the concentration required in stimulating the luciferase activity by 50%.

Series [2] addresses T2, hERG (Homo sapiens, UniProt Q12809).
T2 construct: expressed in transfected cells; host or cells: HEK293 (hERG-HEK293)
Nature of the series: Automated hERG patch clamp assay. The format is cell-based. As to conditions: hERG-HEK293 cells, whole cell patch clamp. The method, then:
To study the cardiac safety of test compounds using automated hERG patch clamp assay, hERG-HEK293 cells were grown to 70% confluency and were harvested using accumax. The cells were then suspended in complete media and were incubated at 37° C. and 5% CO2 for 30 minutes before using these cells for the whole cell patch clamp assay. Whole cell patch clamp recordings were conducted on Nanion's Patchliner using I-V protocol of voltage step from holding potential of −80 mV to +40 mV for 500 ms and then to test potential for 500 ms and back to holding potential of −80 mV. Pulses were elicited every 10 seconds. Each test compound concentration was incubated for 5 minutes. Data analysis was done by plotting the raw data using Igor Pro software and IC50 values were calculated. Cells with resistance >1 Gohms and tail currents of >200 pA were taken into consideration for data analysis. Quinidine was used as positive control.

The nature of series [3]: Rodent pharmacokinetic study. The format is in vivo, Male wistar rats. As to conditions: male, Wistar, plasma, rat; for bioavailability: 3 mg/kg oral vs 1 mg/kg intravenous. The protocol:
Male wistar rats (225±25 grams) were used as experimental animals. Three to five animals were housed in each cage. Two days prior to dosing day, male wistar rats (225-250 grams) were anesthetized with isoflurane for surgical placement of jugular vein catheter. Animals were fasted overnight before oral dosing (p.o) and food pellets were allowed 2 hours post dosing, whereas during intravenous dosing food and water were provided as ad libitum. Three rats were dosed with test compounds (3 mg/kg) orally and intravenously (1 mg/kg).
At each time point blood was collected through jugular vein and immediately replenish with an equivalent volume of normal saline from freely moving rats. Collected blood was transferred into a labeled eppendr off containing 10 μL of heparin as anticoagulant. Typically blood samples were collected as following time points: Pre dose, 0.08 (only i.v.), 0.25, 0.5, 1, 2, 4, 6, 8, and 24 hours post dose-(n=3). Blood was centrifuged at 4000 rpm for 10 minutes. Plasma was prepared and stored frozen at −20° C. until analysis. The concentrations of the test compounds were quantified in plasma by qualified LC-MS/MS method using suitable extraction technique. The test compounds were quantified in the calibration range around 2-2000 ng/mL in plasma. Study samples were analyzed using calibration samples in the batch and quality control samples spread across the batch.
Pharmacokinetic parameters Cmax, Tmax, AUCt, T1/2 and Bioavailability were calculated by non-compartmental model using standard non-compartmental model by using WinNonLin 5.0.1 or Phoenix WinNonlin 6.2 version Software package.

Series [4] is described as follows: Rodent brain penetration study. The format is in vivo, Male Wistar rats. As to conditions: male, Wistar, rat, 3 mg/kg, oral (gavage), read-out: Single dose Brain Penetration (Cb/Cp). The method, then: Male Wistar rats (225±25 grams) were used as experimental animals. Three animals were housed in each cage. Animals were given water and food ad libitum throughout the experiment and maintained on a 12 hours light/dark cycle. Brain penetration was determined in discrete manner in rats. One day prior to dosing day, male wistar rats (225-250 grams) were acclimatized. After acclimatization the rats were grouped according to their weight. In each group, 3 animals were kept in individual cage and allowed free access to food and water. At each time point (0.50, 1 and 2 hours) n=3 animals were used. The test compounds were suitably preformulated and administered orally at (free base equivalent) 3 mg/kg. Blood samples were removed via, cardiac puncture by using isoflurane anesthesia. The animals were sacrificed to collect brain tissue. Plasma was separated and brain samples were homogenized and stored frozen at −20° C. until analysis. The concentrations of the test compounds in plasma and brain were determined using LC-MS/MS method. The test compounds were quantified in plasma and brain homogenate by qualified LC-MS/MS method using suitable extraction technique. The test compounds were quantified in the calibration range of 1-500 ng/mL in plasma and brain homogenate. Study samples were analyzed using calibration samples in the batch and quality control samples spread across the batch. Extent of brain-plasma ratio was calculated (Cb/Cp).

Series [5] is described as follows: Object recognition task model. In kind it is in vivo, Male Wistar rats. As to conditions: p.o. The protocol: The cognition enhancing properties of compounds of this invention were estimated by using this model.
Male Wistar rats (230-280 grams) were used as experimental animals. Four animals were housed in each cage. Animals were kept on 20% food deprivation before one day and given water ad libitum throughout the experiment and maintained on a 12 hours light/dark cycle. Also the rats were habituated to individual arenas for 1 hour in the absence of any objects.
One group of 12 rats received vehicle (1 mL/Kg) orally and another set of animals received compound of the formula (I) either orally or i.p., before one hour of the familiar (T1) and choice trial (T2).
The experiment was carried out in a 50×50×50 cm open field made up of acrylic. In the familiarization phase, (T1), the rats were placed individually in the open field for 3 minutes, in which two identical objects (plastic bottles, 12.5 cm height×5.5 cm diameter) covered in yellow masking tape alone (a1 and a2) were positioned in two adjacent corners, 10 cms from the walls. After 24 hours of the (T1) trial for long-term memory test, the same rats were placed in the same arena as they were placed in T1 trial. Choice phase (T2) rats were allowed to explore the open field for 3 minutes in presence of one familiar object (a3) and one novel object (b) (Amber color glass bottle, 12 cm high and 5 cm in diameter). Familiar objects presented similar textures, colors and sizes. During the T1 and T2 trial, explorations of each object (defined as sniffing, licking, chewing or having moving vibrissae whilst directing the nose towards the object at a distance of less than 1 cm) were recorded separately by stopwatch. Sitting on an object was not regarded as exploratory activity, however, it was rarely observed.
T1 is the total time spent exploring the familiar objects (a1+a2).
T2 is the total time spent exploring the familiar object and novel object (a3+b).
The object recognition test was performed as described by Behaviour Brain Research, 31 (1988), 47-59.

T1 sequence (Q13639 whole entry): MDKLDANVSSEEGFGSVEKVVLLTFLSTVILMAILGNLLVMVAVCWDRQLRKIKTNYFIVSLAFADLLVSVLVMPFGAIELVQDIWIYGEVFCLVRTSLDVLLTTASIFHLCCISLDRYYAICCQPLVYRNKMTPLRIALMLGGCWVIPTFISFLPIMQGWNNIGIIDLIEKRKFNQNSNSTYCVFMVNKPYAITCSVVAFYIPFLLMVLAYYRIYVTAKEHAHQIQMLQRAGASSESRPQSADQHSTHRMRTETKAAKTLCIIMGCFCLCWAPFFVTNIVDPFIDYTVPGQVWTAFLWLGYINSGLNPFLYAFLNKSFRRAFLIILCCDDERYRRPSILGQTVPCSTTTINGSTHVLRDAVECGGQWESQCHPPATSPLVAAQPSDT
T2 sequence (Q12809 whole entry): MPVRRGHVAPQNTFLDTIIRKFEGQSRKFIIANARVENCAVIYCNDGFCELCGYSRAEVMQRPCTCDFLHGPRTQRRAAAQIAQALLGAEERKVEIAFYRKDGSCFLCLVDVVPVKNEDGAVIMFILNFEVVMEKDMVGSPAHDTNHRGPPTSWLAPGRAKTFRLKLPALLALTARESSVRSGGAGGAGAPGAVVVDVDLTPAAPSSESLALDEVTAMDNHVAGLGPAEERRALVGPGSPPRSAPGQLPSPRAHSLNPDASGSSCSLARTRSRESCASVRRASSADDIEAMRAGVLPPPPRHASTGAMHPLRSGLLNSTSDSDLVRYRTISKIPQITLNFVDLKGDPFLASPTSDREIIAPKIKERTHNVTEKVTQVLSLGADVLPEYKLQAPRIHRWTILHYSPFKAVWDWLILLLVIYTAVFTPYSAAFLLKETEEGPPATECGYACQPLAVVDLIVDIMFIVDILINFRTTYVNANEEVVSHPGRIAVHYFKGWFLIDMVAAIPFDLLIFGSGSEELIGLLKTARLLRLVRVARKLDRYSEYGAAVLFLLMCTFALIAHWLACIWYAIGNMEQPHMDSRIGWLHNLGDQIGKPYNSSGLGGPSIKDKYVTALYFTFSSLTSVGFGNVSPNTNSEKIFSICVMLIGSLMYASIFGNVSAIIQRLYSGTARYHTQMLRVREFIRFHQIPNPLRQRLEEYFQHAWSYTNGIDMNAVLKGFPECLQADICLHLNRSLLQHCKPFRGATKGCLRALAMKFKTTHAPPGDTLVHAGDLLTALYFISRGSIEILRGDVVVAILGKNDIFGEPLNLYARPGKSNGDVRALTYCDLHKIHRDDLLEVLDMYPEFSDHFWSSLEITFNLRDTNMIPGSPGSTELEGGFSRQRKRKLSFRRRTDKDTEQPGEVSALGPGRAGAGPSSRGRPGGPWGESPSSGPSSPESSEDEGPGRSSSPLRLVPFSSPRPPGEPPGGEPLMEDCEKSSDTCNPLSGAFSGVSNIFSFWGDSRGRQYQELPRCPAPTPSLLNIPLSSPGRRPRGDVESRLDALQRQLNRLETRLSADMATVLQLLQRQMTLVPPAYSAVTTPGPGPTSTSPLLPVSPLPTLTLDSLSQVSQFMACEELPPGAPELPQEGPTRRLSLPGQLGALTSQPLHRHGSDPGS

Take `CC(C)(O)CN1CC2C(CNC(=O)c3cc(Cl)c(N)c4c3OCCC4)C2C1` (stereo not drawn) [Example 37, 5-Amino-6-chloro-N-{[3-(2-hydroxy-2-methylpropyl)-3-azabicyclo[3.1.0]hex-6-yl]methyl}chroman-8-carboxamide L(+)-tartarate]: in series [1], the EC50 lay in the range of 1.1 to 5 nM. Also, in series [2], the IC50 is above 10000 nM.

Take `CC(C)(O)CN1CCC(F)(CNC(=O)c2cc(Cl)c(N)c3c2OCCC3)CC1.O=C(O)C(O)C(O)C(=O)O` [Example 44, 5-Amino-6-chloro-N-{[4-fluoro-1-(2-hydroxy-2-methylpropyl)-4-piperidinyl]methyl}chroman-8-carboxamide L(+)-tartarate]: in series [3] (1 mg/kg, intravenous (bolus)), the AUC(0-t) came out at 232 ± 14 ng·h/mL and the half-life was 1.5 h. The compound also displayed a bioavailability in series [3] of 25 ± 1%. In addition, in series [3] (3 mg/kg, oral (gavage)), the AUC(0-t) amounted to 176 ± 10 ng·h/mL, the peak level (Cmax) was 110 ± 25 ng/mL, the Tmax was found to be 0.33 h and the half-life is 1.3 h. The Kp in series [4] stood at 0.78 ± 0.06. Besides, in series [5] (3 mg/kg), the “Exploration time mean ± S.E.M, Familiar object” value was 5.44 ± 1.02 s; the “Exploration time mean ± S.E.M, Novel object” value turned out to be 14.64 ± 2.19 s; the Inference entry is reported as “Active”. The same compound gave an IC50 in series [2] above 10000 nM.

In the case of `CC(C)(O)CN1CCC(F)(CNC(=O)c2cc(Br)c(N)c3c2OCCC3)CC1.O=C(O)C(O)C(O)C(=O)O` [Example 48, 5-Amino-6-bromo-N-{[4-fluoro-1-(2-hydroxy-2-methylpropyl)-4-piperidinyl]methyl}chroman-8-carboxamide L(+)-tartarate], in series [3] (1 mg/kg, intravenous (bolus)), the AUC(0-t) came to 211 ± 41 ng·h/mL and the half-life is 1.5 h. In addition, the bioavailability in series [3] was 35 ± 5%. In series [3] (3 mg/kg, oral (gavage)), the AUC(0-t) was 224 ± 33 ng·h/mL, the peak level (Cmax) was 167 ± 20 ng/mL, the time to peak (Tmax) was 0.31 h and the half-life was 1 h. For the same compound, the Kp in series [4] came to 1 ± 0.16. Further, in series [5] (3 mg/kg), the “Exploration time mean ± S.E.M, Familiar object” value was 7.02 ± 0.76 s; the “Exploration time mean ± S.E.M, Novel object” value is 13.80 ± 1.74 s; the Inference entry was “Active”.

For the compound `Cc1cc2c(N)c(Cl)cc(C(=O)NCC3(F)CCN(CC(C)(C)O)CC3)c2o1.O=C(O)C(O)C(O)C(=O)O` [Example 53, 4-Amino-5-chloro-2-methyl-N-{[4-fluoro-1-(2-hydroxy-2-methylpropyl)-4-piperidinyl]methyl}benzofuran-7-carboxamide L(+)-tartarate], in series [1], the EC50 was in the range of 10.1 to 20 nM. In series [3] (1 mg/kg, intravenous (bolus)), this compound had an AUC(0-t) of 147 ± 17 ng·h/mL and a half-life of 0.8 h. The bioavailability in series [3] was 27 ± 20%. Besides, in series [3] (3 mg/kg, oral (gavage)), the exposure AUC(0-t) was found to be 250 ± 87 ng·h/mL, the peak level (Cmax) was 182 ± 26 ng/mL, the Tmax is 0.33 h and the half-life is 1.6 h. In series [4], the Kp was 2.53 ± 0.63. Also, in series [5] (0.3 mg/kg), the “Exploration time mean ± S.E.M, Familiar object” value worked out at 8.24 ± 1.32 s; the “Exploration time mean ± S.E.M, Novel object” value amounted to 15.98 ± 1.75 s; the Inference result is given as “Active”. The IC50 in series [2] is above 10000 nM.

Take `COCCCN1CC2C(CNC(=O)c3cc(Cl)c(N)c4ccoc34)C2C1` (stereo not drawn) [Example 63, 4-Amino-5-chloro-N-{[3-(3-methoxypropyl)-3-azabicyclo[3.1.0]hex-6-yl]methyl}benzofuran-7-carboxamide hydrochloride]: in series [1], the 50% effective concentration (EC50) lay within 5.1 to 10 nM.

For the compound `COCCCN1CC2C(CNC(=O)c3cc(Cl)c(N)c4cc(C)oc34)C2C1` (stereo not drawn) [Example 64, 4-Amino-5-chloro-2-methyl-N-{[3-(3-methoxypropyl)-3-azabicyclo[3.1.0]hex-6-yl]methyl}benzofuran-7-carboxamide hydrochloride], the EC50 in series [1] was 1.1 to 5 nM.

Consider `COCCCN1CC2C(CNC(=O)c3cc(Br)c(N)c4c3OCC4)C2C1` (stereo not drawn) [Example 65, 4-Amino-5-bromo-N-{[3-(3-methoxypropyl)-3-azabicyclo[3.1.0]hex-6-yl]methyl}-2,3-dihydrobenzofuran-7-carboxamide oxalate], for which the EC50 in series [1] was 10.1 to 20 nM.

As to `Nc1c(Cl)cc(C(=O)NCC2CCN(CCF)CC2)c2c1CCCO2` [Example 66, 5-Amino-6-chloro-N-{[1-(2-fluoroethyl)-4-piperidinyl]methyl}chroman-8-carboxamide], in series [1], the EC50 fell in the range of 1.1 to 5 nM.

Values taken from patent publication US9957257B2, “Amide compounds as 5-HT4 receptor agonists” (SUVEN LIFE SCIENCES LIMITED, priority 2015, dated 2018).
